≈ marks a conversion by molar mass, not a printed value.

One test relates to MKN-45. In words: Antiproliferative activity against human MKN-45 cells assessed as cell growth inhibition by MTT assay.
Test [1] in a line: Antiproliferative activity against human U-87 MG cells assessed as cell growth inhibition by MTT assay. The class given is functional, cell-based, U-87MG ATCC.
In the next test the test system is HT-29. In words: cells. Particulars: Homo sapiens.
The next test deals with A549. In words: cells. Particulars: Homo sapiens.
The next test has as its system SMMC-7721. In words: Antiproliferative activity against human SMMC-7721 cells assessed as cell growth inhibition by MTT assay.
For another test, the system named is NCI-H460. In words: Antiproliferative activity against human NCI-H460 cells assessed as cell growth inhibition by MTT assay.
Test [2] is described as follows: Inhibition of CaCC (unknown origin) current potentiation. Details: species or system Homo sapiens.
The subject of a further test is Leishmania amazonensis. In words: Anti-promastigote activity against Leishmania amazonensis (IFLA/BR/67/PH8) assessed as promastigote growth inhibition incubated for 72 hrs by microscopic analysis. The class given is functional, organism-based. Particulars: Leishmania amazonensis, IFLA/BR/67/PH8, 72 h.
Another test deals with NCI-H1299. In words: Cytotoxicity against human NCI-H1299 cells assessed as cell growth inhibition incubated for 48 hrs by SRB assay. Particulars: NCI-H1299, 48 h. The class given is functional, cell-based.
Test [3] deals with Staphylococcus aureus. In words: Antibacterial activity against Staphylococcus aureus NCIM 2010 assessed as bacterial growth inhibition incubated for 8 hrs by absorbance based assay. Format: functional.
The test system of test [4] is Bacillus subtilis. In words: Antibacterial activity against Bacillus subtilis NCIM 2079 assessed as bacterial growth inhibition incubated for 8 hrs by absorbance based assay. Format: functional.
Another test has as its system Pseudomonas aeruginosa. In words: Antibacterial activity against Pseudomonas aeruginosa NCIM 2036 assessed as bacterial growth inhibition incubated for 8 hrs by absorbance based assay. The class given is functional.
Test [5] has as its system Staphylococcus aureus. In words: Antibacterial activity against Staphylococcus aureus NCIM 2010 assessed as reduction in bacterial growth incubated for 8 hrs by absorbance based assay. Conditions: NCIM 2010, 8 h. Format: functional, organism-based.
Another test concerns Escherichia coli. In words: Antibacterial activity against Escherichia coli NCIM 2688 assessed as bacterial growth inhibition incubated for 8 hrs by absorbance based assay. The class given is functional.
Test [6] has as its system Bacillus subtilis. In words: Antibacterial activity against Bacillus subtilis NCIM 2079 assessed as reduction in bacterial growth incubated for 8 hrs by absorbance based assay. Conditions: NCIM 2079, 8 h. The class given is functional, organism-based.
Test [7] relates to Mycobacterium tuberculosis. In words: Antimycobacterial activity against Mycobacterium tuberculosis H37Ra incubated for 8 to 12 days by XTT reduction menadione assay. Format: functional. Conditions: time 8-12 day.
Another test relates to HepG2. In words: Cytotoxicity against human HepG2 cells assessed as cell growth inhibition incubated for 2 days by MTT assay. Format: functional, cell-based. Conditions: HepG2, 48 h.
The test system of a further test is MCF7. In words: Cytotoxicity against human MCF7 cells assessed as cell growth inhibition incubated for 2 days by MTT assay. Particulars: MCF7, 48 h. Format: functional, cell-based.
A further test has as its system PC-3. In words: Cytotoxicity against human PC-3 cells assessed as cell growth inhibition incubated for 2 days by MTT assay. Particulars: PC-3, 48 h. Format: functional, cell-based.
A further test has as its system Epidermophyton floccosum. In words: Antifungal activity against Epidermophyton floccosum 6999 assessed as fungal growth inhibition by spectrophotometry. Format: functional.
Another test has as its system Trichophyton rubrum. In words: Antifungal activity against Trichophyton rubrum 6753 assessed as fungal growth inhibition by spectrophotometry. Format: functional.

Description for A549: Antiproliferative activity against human A549 cells assessed as cell growth inhibition by MTT assay
Description for HT-29: Antiproliferative activity against human HT-29 cells assessed as cell growth inhibition by MTT assay

As for `CCOC(=O)c1c(N)sc(C(=O)Nc2ccc(Cl)cc2)c1-c1ccccc1`, the IC50 in the test with MKN-45 worked out at 0.26 µM; in test [1], 0.39 µM; with HT-29, 0.19 µM; in the test on A549, 0.23 µM; in the test with SMMC-7721, 0.42 µM; with NCI-H460, 0.38 µM.

In the case of `CC(C)(C)C1CCc2c(sc(NC3=NCC(CBr)S3)c2C(=O)O)C1` (configuration not stated), the IC50 in [2] is 24.8 µM.

Take `COc1ccc2nc3cc(Cl)ccc3c(Nc3sc4c(c3C#N)CCCCC4)c2c1`: the EC50 in the test with Leishmania amazonensis worked out at 32.3 µM.

Regarding `CCOC(=O)c1c(NC(=O)CC#N)sc(C(=O)Nc2ccccc2)c1-c1ccccc1`, the IC50 is 0.59 µM with MKN-45; 0.62 µM in [1]; 0.63 µM with HT-29; 0.32 µM with A549; 0.53 µM in the test with SMMC-7721; 0.49 µM in the test with NCI-H460.

Turning to `N#Cc1c(NC(=O)CNc2onc3ncccc23)sc2c1CCCC2`, the IC50 in the test with NCI-H1299 worked out at 18.4 µM.

For the molecule `CC1(C)S[C@@H]2[C@H](NC(=O)[C@H](N)c3ccc(O)cc3)C(=O)N2[C@H]1C(=O)O` [AMOXICILLIN], the MIC in the test with Staphylococcus aureus [3] is 0.29 µg/mL (≈ 0.794 µM); in the test with Bacillus subtilis [4] it was 0.32 µg/mL (≈ 0.876 µM); with Pseudomonas aeruginosa, more than 10 µg/mL; in the test on Escherichia coli, 0.32 µg/mL (≈ 0.876 µM). For the same molecule, the EC50 in the test with Staphylococcus aureus [5] and with Bacillus subtilis [6] was 0.15 µM in each case.

Turning to `COc1ccc2nc3cc(Cl)ccc3c(Nc3sc4c(c3C#N)CCCCCC4)c2c1`, in the test with Leishmania amazonensis, the EC50 was found to be 69 µM.

In the case of `COC(=O)c1c(NC(=O)N[C@@H](C(=O)N[C@@H]2C(=O)N3[C@@H]2SC(C)(C)[C@@H]3C(=O)O)c2ccc(O)cc2)sc2c1CCCCCC2`, the MIC in test [7] is more than 50 µg/mL; in the test on Staphylococcus aureus [3], 0.28 µg/mL (≈ 0.444 µM); in the test on Bacillus subtilis [4] it was 2.57 µg/mL (≈ 4.07 µM); with Pseudomonas aeruginosa, more than 10 µg/mL; in the test on Escherichia coli it was more than 10 µg/mL. Moreover, the EC50 in the test on Staphylococcus aureus [5] amounted to 0.16 µM; in the test with Bacillus subtilis [6] it was 0.25 µM.

In the case of `N#CCC(=O)Nc1sc(C(=O)Nc2ccccc2)c(-c2ccccc2)c1C#N`, the IC50 in the test with MKN-45 was 9.14 µM; in [1], 6.28 µM; in the test on HT-29, 6.59 µM; with A549, 7.59 µM; in the test with SMMC-7721, 7.93 µM; with NCI-H460 it was 8.06 µM.

With `N#Cc1c(NC(=O)/C=C/c2ccc(O)cc2)sc2c1CCCC2`, the IC50 was 7.9 µM in the test on HepG2, 7.5 µM in the test on MCF7 and 5.2 µM in the test with PC-3.

Turning to `COC(=O)c1c(NC(=O)N[C@@H](C(=O)N[C@@H]2C(=O)N3[C@@H]2SC(C)(C)[C@@H]3C(=O)O)c2ccccc2)sc2c1CCCCCC2`, the MIC in test [7] is 23.3 µg/mL (≈ 37.8 µM); in the test with Staphylococcus aureus [3] it was 0.28 µg/mL (≈ 0.455 µM); with Bacillus subtilis [4] it was 2.3 µg/mL (≈ 3.74 µM); in the test on Pseudomonas aeruginosa it was more than 10 µg/mL; in the test on Escherichia coli it was more than 10 µg/mL. For the same molecule, the EC50 in the test with Staphylococcus aureus [5] is 0.15 µM; in the test with Bacillus subtilis [6], 0.28 µM.

Consider `CCOC(=O)c1c(NC(=O)CC#N)sc(C(=O)Nc2ccc(Cl)cc2)c1-c1ccccc1`, for which the IC50 in the test on MKN-45 amounted to 0.39 µM; in test [1], 0.43 µM; with HT-29, 0.62 µM; with A549 it was 0.6 µM; in the test on SMMC-7721, 0.73 µM; in the test on NCI-H460 it was 0.43 µM.

With `COC(=O)c1ccsc1NC(=O)N[C@@H](C(=O)N[C@@H]1C(=O)N2C(C(=O)O)=C(C)CS[C@H]12)c1ccccc1`, the MIC in test [7] is more than 50 µg/mL; in the test with Staphylococcus aureus [3] it was 0.75 µg/mL (≈ 1.41 µM); in the test on Bacillus subtilis [4], 3.14 µg/mL (≈ 5.92 µM); with Pseudomonas aeruginosa it was more than 10 µg/mL; in the test on Escherichia coli it was more than 10 µg/mL. Besides, the EC50 with Staphylococcus aureus [5] turned out to be 0.26 µM; in the test with Bacillus subtilis [6] it was 0.21 µM.

With `COc1ccc2nc3cc(Cl)ccc3c(Nc3sc4c(c3C(N)=O)CCCC4)c2c1`, the EC50 in the test on Leishmania amazonensis amounted to 31.8 µM.

As to `CCOC(=O)c1c(N)sc(C(=O)Nc2ccccc2)c1-c1ccccc1`, the IC50 in the test on MKN-45 is 8.09 µM; in [1] it was 7.42 µM; in the test on HT-29, 7.49 µM; with A549 it was 6.8 µM; with SMMC-7721, 8.58 µM; in the test on NCI-H460 it was 8.59 µM.

Take `C=CCNC(=S)Nc1sc2c(c1C(=O)OC)CCC(C(C)(C)C)C2` (configuration not stated): in [2], the IC50 worked out at 49.7 µM.

For `COC(=O)c1ccsc1NC(=O)N[C@@H](C(=O)N[C@@H]1C(=O)N2[C@@H]1SC(C)(C)[C@@H]2C(=O)O)c1ccccc1`, the MIC in test [7] was more than 50 µg/mL; in the test with Staphylococcus aureus [3], 0.28 µg/mL (≈ 0.526 µM); in the test with Bacillus subtilis [4], 0.55 µg/mL (≈ 1.03 µM); in the test with Pseudomonas aeruginosa, more than 10 µg/mL; in the test on Escherichia coli, more than 10 µg/mL. For the same molecule, the EC50 was found to be 0.16 µM with Staphylococcus aureus [5] and 0.21 µM in the test on Bacillus subtilis [6].

`CCOC(=O)c1c(Nc2c3ccc(Cl)cc3nc3ccc(OC)cc23)sc2c1CCCCC2`: the EC50 with Leishmania amazonensis stood at 26.6 µM.

Consider `COc1cc2c(Oc3ccc(NC(=O)C4(C(=O)Nc5ccc(F)cc5)CC4)cc3F)ccnc2cc1OCCCN1CCOCC1` [FORETINIB], for which the IC50 in test [1] worked out at 0.9 µM.

In the case of `N#Cc1ccsc1/N=C/c1cccc([N+](=O)[O-])c1`, the MIC in the test with Epidermophyton floccosum was found to be 64 µg/mL (≈ 249 µM); in the test with Trichophyton rubrum it was 128 µg/mL (≈ 498 µM).

These data come from ChEMBL document CHEMBL5214926, “Recent contribution of medicinally active 2-aminothiophenes: A privileged scaffold for drug discovery” (Eur J Med Chem, 2022).
